These results are taken from patent US20240383852A1, “ANTI-VIRAL COMPOUNDS” (INFEX Therapeutics Limited, priority 2021, published 2024).

Data set [1] addresses T1, SARS-CoV-2 PLpro (Severe acute respiratory syndrome coronavirus 2, UniProt P0DTD1).
T1 construct: containing 60 nM papain-like protease
The experiment in a line: biochemical.

Data set [2] relates to human Hep G2 cells (ATCC HB-8065). The experiment in a line: Cytotoxicity in Hep G2 cells (CellTiter-Glo). The format is cell-based. On the technique in general: ATP-based viability assays read luminescence as a measure of living cells.
Setting [3] is: 60 nM papain-like protease, 50 μM Z-RLRGG-AMC, pH 7.5, 37° C., read-out: SARS-CoV-2 PLpro IC50.
The mark [4] stands for this setting: Hep G2 cells, 100 μM test article, 24-hour exposure.

Structures can show the parent of a compound that is named as a salt. Where two headings read alike, the source gives them in different places.

In the case of `COc1cc([C@@H](C)NC(=O)c2cc(N3C[C@H]4CC[C@@H](C3)N4)ccc2C)ccc1OCC1CC1` [Example 298, N-[(1R)-1-[4-(Cyclopropylmethoxy)-3-methoxy-phenyl]ethyl]-5-[(1R,5S)-3,8-diazabicyclo[3.2.1]octan-3-yl]-2-methyl-benzamide], the IC50 – broadly, the concentration that gives 50% inhibition – in data set [1] is < 2000 nM. Further, the “% Cell Viability” value in data set [2] (human, 24 h, 100 μM) amounted to 43.9%.

On to `Cc1ccc(N2CCN(C)CC2)cc1C(=O)N[C@H](C)c1cncc(-c2cnn(C)c2)c1` [Example 224, 2-Methyl-5-(4-methylpiperazin-1-yl)-N-[(1R)-1-[5-(1-methylpyrazol-4-yl)-3-pyridyl]ethyl]benzamide], for which the IC50 in data set [1] (setting [3]) is < 5000 nM. The “% Cell Viability” value in data set [2] (setting [4]) was 105.0%.

Regarding `COc1cc(-c2cnn(C)c2)cc([C@@H](C)NC(=O)c2cc(N3CCN4CCCC4C3)ccc2C)c1` (stereo partly drawn) [Example 243, 5-(3,4,6,7,8,8a-Hexahydro-1H-pyrrolo[1,2-a]pyrazin-2-yl)-N-[(1R)-1-[3-methoxy-5-(1-methylpyrazol-4-yl)phenyl]ethyl]-2-methyl-benzamide], in data set [1] (setting [3]), the concentration for half-maximal inhibition (IC50) was < 2000 nM. Further, the “% Cell Viability” value in data set [2] (setting [4]) stood at 70.9%.

Take `COc1ccc([C@@H](C)NC(=O)c2cc(N3CCN(C)CC3)ccc2C)cc1-c1nnc(C)s1` [Example 236, N-[(1R)-1-[4-Methoxy-3-(5-methyl-1,3,4-thiadiazol-2-yl)phenyl]ethyl]-2-methyl-5-(4-methylpiperazin-1-yl)benzamide]: the IC50 in data set [1] (setting [3]) was < 2000 nM. The “% Cell Viability” value in data set [2] (setting [4]) was 79.5%.

Take `COc1cc([C@@H](C)NC(=O)c2cc(N3C[C@H]4C[C@@H]3CN4C)ccc2C)ccc1OCC1CC1` [Example 297, N-[(1R)-1-[4-(Cyclopropylmethoxy)-3-methoxy-phenyl]ethyl]-2-methyl-5-[(1R,4R)-5-methyl-2,5-diazabicyclo[2.2.1]heptan-2-yl]benzamide]: the IC50 in data set [1] (setting [3]) was < 2000 nM. In addition, the “% Cell Viability” value in data set [2] (setting [4]) is recorded as 61.1%.

Take `Cc1ccc(N2C[C@H]3C[C@@H]2CN3C)cc1C(=O)N[C@H](C)c1cccc2c1OCO2` [Example 122, N-[(1R)-1-(1,3-benzodioxol-4-yl)ethyl]-2-methyl-5-[(1R,4R)-5-methyl-2,5-diazabicyclo[2.2.1]heptan-2-yl]benzamide]: the concentration for half-maximal inhibition (IC50) in data set [1] (setting [3]) is < 5000 nM. Moreover, the “% Cell Viability” value in data set [2] (setting [4]) is recorded as 95.4%.

On to `Cc1ccc(N2CCN(C)CC2)cc1C(=O)N[C@H](C)c1cc(O)cc(-c2cnn(C)c2)c1` [Example 275, N-[(1R)-1-[3-Hydroxy-5-(1-methylpyrazol-4-yl)phenyl]ethyl]-2-methyl-5-(4-methylpiperazin-1-yl)benzamide], for which the IC50 in data set [1] (setting [3]) was < 2000 nM. Besides, the “% Cell Viability” value in data set [2] (setting [4]) is 80.7%.

Take `COc1cc(-c2cnn(C)c2)cc([C@@H](C)NC(=O)c2cc(N3C[C@H]4CC[C@@H](C3)N4CC3CC3)ccc2C)c1` [Example 274, 5-[(1R,5S)-8-(Cyclopropylmethyl)-3,8-diazabicyclo[3.2.1]octan-3-yl]-N-[(1R)-1-[3-methoxy-5-(1-methylpyrazol-4-yl)phenyl]ethyl]-2-methyl-benzamide]: the IC50 in data set [1] was < 2000 nM. In data set [2] (human, 24 h, 100 μM), the “% Cell Viability” value is reported as 38.7%.

As for `Cc1ccc(N2CCN(CCC(=O)O)CC2)cc1C(=O)N[C@H](C)c1cccc2ccccc12` [Example 162, 3-[4-[4-Methyl-3-[[(1R)-1-(1-naphthyl)ethyl]carbamoyl]phenyl]piperazin-1-yl]propanoic acid], the IC50 in data set [1] (setting [3]) is < 2000 nM. Also, in data set [2] (setting [4]), the “% Cell Viability” value worked out at 104.9%.

With `Cc1ccc(N2CCN(C)CC2)cc1C(=O)N[C@H](C)c1cccc(-c2nccs2)c1` [Example 65, 2-Methyl-5-(4-methylpiperazin-1-yl)-N-[(1R)-1-(3-thiazol-2-ylphenyl)ethyl]benzamide], the IC50 in data set [1] (setting [3]) was < 2000 nM. Also, in data set [2] (setting [4]), the “% Cell Viability” value turned out to be 77.6%.

On to `Cc1ccc(N2CCCN(S(N)(=O)=O)CC2)cc1C(=O)N[C@H](C)c1cccc2ccccc12` [Example 178, 2-methyl-N-[(1R)-1-(1-naphthyl)ethyl]-5-(4-sulfamoyl-1,4-diazepan-1-yl)benzamide], for which the IC50 in data set [1] (setting [3]) is < 20000 nM. Further, the “% Cell Viability” value in data set [2] (setting [4]) stood at 77.2%.

As for `COc1ccc([C@@H](C)NC(=O)c2cc(N3CCN(CCO)CC3)ccc2C)cc1OC` [Example 32, N-[(1R)-1-(3,4-Dimethoxyphenyl)ethyl]-5-[4-(2-hydroxyethyl)piperazin-1-yl]-2-methyl-benzamide], the IC50 in data set [1] (setting [3]) was < 5000 nM. For the same molecule, the “% Cell Viability” value in data set [2] (setting [4]) is given as 103.5%.

In the case of `Cc1ccc(N2CCN(C)CC2)cc1C(=O)N[C@H](C)c1cccc(N2CCNCC2)c1` [Example 105, 2-Methyl-5-(4-methylpiperazin-1-yl)-N-[(1R)-1-(3-piperazin-1-ylphenyl)ethyl]benzamide], the 50% inhibitory concentration (IC50) in data set [1] (setting [3]) is < 5000 nM. The “% Cell Viability” value in data set [2] (setting [4]) is 113.3%.

In the case of `Cc1ccc(C2CCN(C)CC2)cc1C(=O)N[C@H](C)c1cccc2ccccc12` [Example 157, 2-Methyl-5-(1-methyl-4-piperidyl)-N-[(1R)-1-(1-naphthyl)ethyl]benzamide], the IC50 in data set [1] (setting [3]) was < 2000 nM. Moreover, the “% Cell Viability” value in data set [2] (setting [4]) is recorded as 1.5%.

As for `Cc1ccc(N2CCN(C)CC2)cc1C(=O)N[C@H](C)c1ccc(N2CCNCC2)cc1` [Example 106, 2-Methyl-5-(4-methylpiperazin-1-yl)-N-[(1R)-1-(4-piperazin-1-ylphenyl)ethyl]benzamide], the half-inhibitory concentration (IC50) in data set [1] (setting [3]) is < 5000 nM. The “% Cell Viability” value in data set [2] (setting [4]) came to 87.4%.

As for `COc1ccc([C@@H](C)NC(=O)c2cc(N3CCN(C)CC3)ccc2C)cc1-c1ccccc1` [Example 203, N-[(1R)-1-(4-Methoxy-3-phenyl-phenyl)ethyl]-2-methyl-5-(4-methylpiperazin-1-yl)benzamide], in data set [1] (setting [3]), the IC50 was < 2000 nM. Moreover, the “% Cell Viability” value in data set [2] (setting [4]) amounted to 0.9%.

Consider `COc1cc(-c2cn(C)nc2C)cc([C@@H](C)NC(=O)c2cc(N3CCCNCC3)ccc2C)c1` [Example 265, 5-(1,4-Diazepan-1-yl)-N-[(1R)-1-[3-(1,3-dimethylpyrazol-4-yl)-5-methoxy-phenyl]ethyl]-2-methyl-benzamide], for which the IC50 in data set [1] (setting [3]) is < 2000 nM. Further, the “% Cell Viability” value in data set [2] (setting [4]) amounted to 40.7%.

Take `Cc1ccc(N2CCN(C)CC2)cc1C(=O)N[C@H](C)c1cccc(-c2cccc(C(=O)NCCO)c2)c1` [Example 97, N-[(1R)-1-[3-[3-(2-Hydroxyethylcarbamoyl)phenyl]phenyl]ethyl]-2-methyl-5-(4-methylpiperazin-1-yl)benzamide]: the IC50 in data set [1] (setting [3]) was < 2000 nM. Moreover, the “% Cell Viability” value in data set [2] (setting [4]) is listed as 72.1%.

On to `COC(=O)CCN1CCN(c2cccc(C(=O)N[C@H](C)c3cccc4ccccc34)c2)CC1` [Example 160, Methyl 3-[4-[3-[[(1R)-1-(1-naphthyl)ethyl]carbamoyl]phenyl]piperazin-1-yl]propanoate], for which the half-maximal inhibitory concentration (IC50) in data set [1] (setting [3]) was < 100000 nM. For the same molecule, the “% Cell Viability” value in data set [2] (setting [4]) is listed as 101.8%.

For the molecule `C[C@@H]1CN(c2ccc(Cl)c(C(=O)N[C@H](C)c3cccc4ccccc34)c2)C[C@H](C)N1` [Example 133, 2-Chloro-5-[(3S,5R)-3,5-dimethylpiperazin-1-yl]-N-[(1R)-1-(1-naphthyl)ethyl]benzamide], the IC50 in data set [1] (setting [3]) is < 5000 nM. The “% Cell Viability” value in data set [2] (setting [4]) is on record as 0.1%.

For the molecule `Cc1ccc(N2CCN(C)CC2)nc1C(=O)N[C@H](C)c1cccc2ccccc12` [Example 15, 3-Methyl-6-(4-methylpiperazin-1-yl)-N-[(1R)-1-(1-naphthyl)ethyl]pyridine-2-carboxamide hydrochloride], the half-inhibitory concentration (IC50) in data set [1] (setting [3]) is < 10000 nM. Further, the “% Cell Viability” value in data set [2] (setting [4]) was 76.1%.
